Source: patent publication US9139609B2, “C-4″ position substituted macrolide derivative” (priority 2011, dated 2015)
≈ marks a conversion by molar mass, not a printed value.

Key:
Format in all cases: cell-based
[1] = test system: Streptococcus pneumoniae ATCC700904; test: In vitro antibacterial activity, microbroth dilution method (CLSI method), test bacterium C (erythromycin resistant); details: read-out: MIC (minimum inhibitory concentration), test bacterium C
Protocol: (§1) In vitro antibacterial activities of the compounds of the present invention against various test bacteria were measured according to the microbroth dilution method (CLSI method). Among them, the bacteria C, D and E are erythromycin resistant bacteria. The MIC values (minimum inhibitory concentration, μg/ml) for the test bacteria A and B are exemplified in Table 22.

[2] = test system: Mycoplasma pneumoniae MSC04933; test: In vitro antibacterial activity, microbroth dilution method (CLSI method), test bacterium E (erythromycin resistant); details: read-out: MIC (minimum inhibitory concentration), test bacterium E
Protocol: as §1

[3] = test system: Streptococcus pyogenes M808; test: In vitro antibacterial activity, microbroth dilution method (CLSI method), test bacterium D (erythromycin resistant); details: read-out: MIC (minimum inhibitory concentration), test bacterium D
Protocol: as §1

Structure (SMILES) | MIC [1] [µg/mL] | MIC [2] [µg/mL] | MIC [3] [µg/mL]
CC[C@H]1OC(=O)[C@H](C)[C@@H](O[C@H]2C[C@@](C)(OC)[C@@](O)(CN(C)CCN(C)C)[C@H](C)O2)[C@H](C)[C@@H](O[C@@H]2O[C@H](C)C[C@H](N(C)C)[C@H]2O)[C@@](C)(OC)C[C@@H](C)C(=O)[C@H](C)[C@H]2C(SCCCn3cnc4c(N)ncnc43)C(=O)O[C@@]21C (stereo partly drawn) [Example 364] | ≤ 0.06 | ≤ 0.25 | ≤ 2
CC[C@H]1OC(=O)[C@H](C)[C@@H](O[C@H]2C[C@@](C)(OC)[C@@](O)(CN(C)CCN(C(C)C)C(C)C)[C@H](C)O2)[C@H](C)[C@@H](O[C@@H]2O[C@H](C)C[C@H](N(C)C)[C@H]2O)[C@@](C)(OC)C[C@@H](C)C(=O)[C@H](C)[C@H]2N(CCNS(C)(=O)=O)C(=O)O[C@]12C [Example 404] | 0.12 to 0.25 (≈ 0.113 to 0.235 µM) | ≤ 0.25 | ≤ 2
CC[C@H]1OC(=O)[C@H](C)[C@@H](O[C@H]2C[C@@](C)(OC)[C@@](O)(CN(C)CCN(CC)CC)[C@H](C)O2)[C@H](C)[C@@H](O[C@@H]2O[C@H](C)C[C@H](N(C)C)[C@H]2O)[C@@](C)(OC)C[C@@H](C)C(=NO)[C@H](C)[C@H]2N(CCNS(C)(=O)=O)C(=O)O[C@]12C [Example 334] | 0.12 to 0.25 (≈ 0.114 to 0.238 µM) | ≤ 0.25 | 4 to 8 (≈ 3.8 to 7.61 µM)
CC[C@H]1OC(=O)[C@H](C)[C@@H](O[C@H]2C[C@@](C)(OC)[C@@](O)(CN(C)CCN(C)C(C)(C)c3ccccc3OC)[C@H](C)O2)[C@H](C)[C@@H](O[C@@H]2O[C@H](C)C[C@H](N(C)C)[C@H]2O)[C@@](C)(OC)C[C@@H](C)C(=O)[C@H](C)[C@H]2C(C#N)C(=O)O[C@@]21C (stereo partly drawn) [Example 363] | 0.12 to 0.25 (≈ 0.115 to 0.239 µM) | ≤ 0.25 | ≤ 2
CC[C@H]1OC(=O)[C@H](C)[C@@H](O[C@H]2C[C@@](C)(OC)[C@@](O)(CN(C)CCN(C)C(C)(C)c3ccccc3OC)[C@H](C)O2)[C@H](C)[C@@H](O[C@@H]2O[C@H](C)C[C@H](N(C)C)[C@H]2O)[C@@](C)(OC)C[C@@H](C)[C@@H]2NCCN3C(=O)O[C@@]1(C)[C@H]3[C@@H]2C [Example 340] | 0.12 to 0.25 (≈ 0.114 to 0.238 µM) | ≤ 0.25 | ≤ 2
